Target: T1, rat NaPi-2b (Rattus norvegicus, UniProt Q9JJ09)
T1 construct: expressed in transfected cells; host or cells: Xenopus oocytes injected with cRNA
T1 sequence (Q9JJ09 1-695): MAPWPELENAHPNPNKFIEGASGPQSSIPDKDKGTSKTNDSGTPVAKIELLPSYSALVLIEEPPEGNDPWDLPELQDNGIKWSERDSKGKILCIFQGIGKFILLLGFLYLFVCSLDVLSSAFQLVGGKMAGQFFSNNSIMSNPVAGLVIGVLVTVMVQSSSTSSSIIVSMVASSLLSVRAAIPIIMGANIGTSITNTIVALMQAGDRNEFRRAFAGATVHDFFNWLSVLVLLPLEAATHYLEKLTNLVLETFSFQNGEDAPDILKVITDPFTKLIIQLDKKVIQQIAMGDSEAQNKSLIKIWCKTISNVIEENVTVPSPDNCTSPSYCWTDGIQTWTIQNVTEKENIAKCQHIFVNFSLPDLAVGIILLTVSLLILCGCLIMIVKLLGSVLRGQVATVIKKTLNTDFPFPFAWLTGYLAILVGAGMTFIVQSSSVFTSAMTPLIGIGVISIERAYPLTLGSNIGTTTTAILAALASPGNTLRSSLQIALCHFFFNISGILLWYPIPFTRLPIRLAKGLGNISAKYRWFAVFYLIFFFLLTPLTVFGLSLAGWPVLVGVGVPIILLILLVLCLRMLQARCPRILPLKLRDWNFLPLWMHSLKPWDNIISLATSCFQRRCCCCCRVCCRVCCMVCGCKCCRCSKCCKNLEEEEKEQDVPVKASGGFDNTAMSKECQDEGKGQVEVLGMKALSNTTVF
Assay: Sodium-dependent phosphate uptake of Xenopus oocytes which expressed NaPi-2b (32P)
Assay type: cell-based
Settings: for IC50: Xenopus oocytes expressing rat NaPi-2b, 32P radioactive phosphorus, read-out: IC50 (phosphate uptake inhibitory activity); for inhibition at 300 µM: phosphate uptake, oocytes expressing rat NaPi-2b, determined from inhibition curve
Method in brief: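 Rat small-intestine NaPi-2b cRNA injected into Xenopus oocytes, expressed for 2 days. Sodium-dependent phosphate uptake measured with 32P; % inhibition at 300 and 100 μM taken from the same inhibition curve.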

Compound	IC50 [µM]	inhibition at 300 µM [%]
CCN(CC)CCN(C)Cc1cccc(C(=O)Nc2ccc(I)cc2C(=O)N/N=C/c2ccc(C)c(C)c2)c1 [Compound 476, 3-{[(2-Diethylamino-ethyl)-methyl-amino]-methyl}-N-[2-(3,4-dimethyl-benzylidene-hydrazinocarbonyl)-4-iodo-phenyl]-benzamide]	< 3	–
CC(O)CN(Cc1cccc(C(=O)Nc2sc3ccccc3c2C(=O)N/N=C/c2ccc(Cl)c(C(F)(F)F)c2)c1)CC(C)O (stereo not shown) [Compound 796, 3-{[Bis-(2-hydroxy-propyl)-amino]-methyl}-N-[3-(4-chloro-3-trifluoromethyl-benzylidene-hydrazinocarbonyl)-benzo[b]thiophen-2-yl]-benzamide]	0.35	–
COc1ccc(/C=N/NC(=O)c2cc(N3CCCCC3)ccc2NC(=O)c2cccc(CNCCN(CCO)CCO)c2)cc1 [Compound 915, 3-({2-[Bis-(2-hydroxy-ethyl)-amino]-ethylamino}-methyl)-N-[2-(4-methoxy-benzylidene-hydrazinocarbonyl)-4-piperidin-1-yl-phenyl]-benzamide]	8.15	–
Cc1ccc(/C=N/n2c(-c3cccc(CSCCO)c3)nc3ccc(Br)cc3c2=O)cc1C [Compound 697, 6-Bromo-3-[(3,4-dimethyl-benzylidene-)-amino]-2-[3-(2-hydroxy-ethylsulfanylmethyl)-phenyl]-3H-quinazolin-4-one]	< 3	–
CCN(CC)CCN(C)Cc1cccc(C(=O)Nc2ccc(OCCCCF)cc2C(=O)N/N=C/c2ccc(C)c(C)c2)c1 [Compound 1059, 3-{[(2-Diethylamino-ethyl)-methyl-amino]-methyl}-N-[2-(3,4-dimethyl-benzylidene-hydrazinocarbonyl)-4-(4-fluoro-butoxy)-phenyl]-benzamide]	0.43	–
Cc1ccc(/C=N/NC(=O)c2cc(Cl)ccc2NC(=O)c2cccc(CSCCS(=O)(=O)O)c2)cc1 [Compound 693, 2-{3-[4-Chloro-2-(4-methyl-benzylidene-hydrazinocarbonyl)-phenylcarbamoyl]-benzylsulfanyl}-ethanesulfonic acid]	70.2	–
C/C(=N\NC(=O)c1cc(Br)ccc1NC(=O)c1cccc(CN(CC(C)O)CC(C)O)c1)c1cccc(F)c1 (stereo not shown) [Compound 996, 3-{[Bis-(2-hydroxy-propyl)-amino]-methyl}-N-{4-bromo-2-[1-(3-fluoro-phenyl)-ethylidene-hydrazinocarbonyl]-phenyl}-benzamide]	2.66	–
Cc1ccc(CNNC(=O)c2cc(Br)ccc2NC(=O)c2ccccn2)cc1 [Compound 544, Pyridin-2-carboxylic acid {4-bromo-2-[N′-(4-methyl-benzyl)-hydrazinocarbonyl]-phenyl}-amide]	–	60
COc1ccc(C(=O)Nc2ccc(Cl)cc2C(=O)N/N=C/c2ccccn2)cc1OC [Compound 244, N-[4-Chloro-2-(pyridin-2-ylmethylene-hydrazinocarbonyl)-phenyl]-3,4-dimethoxy-benzamide]	–	30.7
Cc1ccc(/C=N/NC(=O)c2cc(Cl)ccc2NC(=O)c2cccc(CN(CCO)CCO)c2)cc1 [Compound 405, 3-{[Bis-(2-hydroxy-ethyl)-amino]-methyl}-N-[4-chloro-2-(4-methyl-benzylidene-hydrazinocarbonyl)-phenyl]-benzamide]	1.9	–
COc1cccc(/C=N/NC(=O)c2cc(Br)ccc2NC(=O)c2ccc(CN3CCC(CCO)CC3)cc2)c1 [Compound 746, N-[4-Bromo-2-(3-methoxy-benzylidene-hydrazinocarbonyl)-phenyl]-4-[4-(2-hydroxy-ethyl)-piperidin-1-ylmethyl]-benzamide]	16.8	–
CN(CCCNCc1ccc(C(=O)Nc2ccc(Br)cc2C(=O)N/N=C/c2cccc(F)c2)cc1)c1ccccc1 [Compound 760, N-[4-Bromo-2-(3-fluoro-benzylidene-hydrazinocarbonyl)-phenyl]-4-{[3-(methyl-phenyl-amino)-propylamino]-methyl}-benzamide]	–	73.3
Cc1ccc(/C=N/NC(=O)c2cc(N3CCSCC3)ccc2NC(=O)c2cccc(CSCCO)c2)cc1C [Compound 926, N-[2-(3,4-Dimethyl-benzylidene-hydrazinocarbonyl)-4-thiomorpholin-4-yl-phenyl]-3-(2-hydroxy-ethylsulfanylmethyl)-benzamide]	< 1	–
COc1ccc(C(=O)Nc2ccccc2C(=O)N/N=C/c2ccc(O)c(O)c2)cc1OC [Compound 26, N-[2-(3,4-Dihydroxy-benzylidene-hydrazinocarbonyl)-phenyl]-3,4-dimethoxy-benzamide]	25.4	–
O=C(Nc1ccc(Br)cc1C(=O)N/N=C/c1ccc(Cl)c(C(F)(F)F)c1)c1ccccn1 [Compound 500, Pyridin-2-carboxylic acid [4-bromo-2-(4-chloro-3-trifluoromethyl-benzylidene-hydrazinocarbonyl)-phenyl]-amide]	0.35	–
Cc1ccc(/C=N/NC(=O)c2cc(Br)ccc2NC(=O)c2ccc(CN3CCC(N4CCCCC4)CC3)cc2)cc1C [Compound 308, 4-[1,4′]Bipiperidinyl-1′-ylmethyl-N-[4-bromo-2-(3,4-dimethyl-benzylidene-hydrazinocarbonyl)-phenyl]-benzamide]	2.76	–
COc1ccc(C(=O)Nc2ccc(Br)cc2C(=O)N/N=C/c2cccc(Cl)c2)cc1OC [Compound 59, N-[4-Bromo-2-(3-chloro-benzylidene-hydrazinocarbonyl)-phenyl]-3,4-dimethoxy-benzamide]	1.22	–
COc1ccc(C(=O)Nc2ccc(Br)cc2C(=O)N/N=C/c2cc(C)c(C)o2)cc1OC [Compound 202, N-[4-Bromo-2-(4,5-dimethyl-furan-2-ylmethylene-hydrazinocarbonyl)-phenyl]-3,4-dimethoxy-benzamide]	3.14	–

Other lines, results leading:

IC50 [µM]	inhibition at 300 µM [%]	Compound
1.31	–	CCN(CC)CCN(C)Cc1ccc(C(=O)Nc2ccc(Br)cc2C(=O)N/N=C/c2cccc(F)c2)cc1 [Compound 288, N-[4-Bromo-2-(3-fluoro-benzylidene-hydrazinocarbonyl)-phenyl]-4-{[(2-diethylamino-ethyl)-methyl-amino]-methyl}-benzamide]
< 3	–	Cc1csc(NC(=O)c2cccc(CN3CCC(CO)CC3)c2)c1C(=O)N/N=C/c1ccc(F)cc1 [Compound 601, N-[3-(4-Fluoro-benzylidene-hydrazinocarbonyl)-4-methyl-thiophen-2-yl]-3-(4-hydroxymethyl-piperidin-1-ylmethyl)-benzamide]
5.11	–	O=C(Nc1ccc(Br)cc1C(=O)N/N=C/c1ccc(F)cc1)c1ccc(F)cc1 [Compound 106, N-[4-Bromo-2-(4-fluoro-benzylidene-hydrazinocarbonyl)-phenyl]-4-fluoro-benzamide]
26.7	–	COc1ccc(C(=O)Nc2ccccc2C(=O)N/N=C/c2ccc(C)o2)cc1OC [Compound 22, 3,4-Dimethoxy-N-[2-(5-methyl-furan-2-ylmethylene-hydrazinocarbonyl)-phenyl]-benzamide]
–	43.8	Cc1csc(C(=O)N/N=C/c2ccc(F)cc2)c1NC(=O)c1cccc(CN2CCN(CCO)CC2)c1 [Compound 534, N-[2-(4-Fluoro-benzylidene-hydrazinocarbonyl)-4-methyl-thiophen-3-yl]-3-[4-(2-hydroxy-ethyl)-piperazin-1-ylmethyl]-benzamide]
–	55.2	COCCOc1cc(NC(=O)c2cccc(CSCC(O)CO)c2)c(C(=O)N/N=C/c2ccc(C)cc2)cc1OCCOC (stereo not shown) [Compound 1014, N-[4,5-Bis-(2-methoxy-ethoxy)-2-(4-methyl-benzylidene-hydrazinocarbonyl)-phenyl]-3-(2,3-dihydroxy-propylsulfanylmethyl)-benzamide]
8.21	–	COc1ccc(C(=O)Nc2ccccc2C(=O)N/N=C/c2ccc(O)c(C)c2)cc1OC [Compound 42, N-[2-(4-Hydroxy-3-methyl-benzylidene-hydrazinocarbonyl)-phenyl]-3,4-dimethoxy-benzamide]
< 3	–	Cc1cccc(/C=N/NC(=O)c2cc(Cl)ccc2NC(=O)c2ccc(CN(C)CCO)cc2)c1 [Compound 414, N-[4-Chloro-2-(3-methyl-benzylidene-hydrazinocarbonyl)-phenyl]-4-{[(2-hydroxy-ethyl)-methyl-amino]-methyl}-benzamide]
< 3	–	Cc1ccc(CNNC(=O)c2c(C)csc2NC(=O)c2cccc(CSCCCO)c2)cc1C [Compound 645, N-{3-[N′-(3,4-Dimethyl-benzyl)-hydrazinocarbonyl]-4-methyl-thiophen-2-yl}-3-(3-hydroxy-propylsulfanylmethyl)-benzamide]
18.8	–	O=C(Nc1ccc(N2CCN(CCO)CC2)cc1C(=O)N/N=C/c1ccc(Cl)c(C(F)(F)F)c1)c1cccc(CSCCO)c1 [Compound 923, N-{2-(4-Chloro-3-trifluoromethyl-benzylidene-hydrazinocarbonyl)-4-[4-(2-hydroxy-ethyl)-piperazin-1-yl]-phenyl}-3-(2-hydroxy-ethylsulfanylmethyl)-benzamide]

From US8134015B2, “Compound inhibiting in vivo phosphorous transport and medicine containing the same” (Kyowa Hakko Kirin Co., Ltd., priority 2003, dated 2012)
